In patent US20060116427A1, “Adapalene polymorphic forms” (priority 2004, published 2006):

What was measured:
[1] = Stability of the solid form at room temperature; type: physicochemical
[2] = Particle size (mean diameter D[4,3]) by laser light scattering, Malvern Mastersizer MS1; type: physicochemical; details: product as obtained, not micronised
Procedure: According to present invention, when a particles sample is stated to have mean diameter, referred to as D[4,3], higher than X μm, this means that the mean volume of the particles constituting the sample is higher than the volume of a spherical particle with diameter X.
The particle sizes, i.e. mean diameter values D[4,3], were determined with the known technique of laser light scattering using a Malvern Mastersizer MS1 instrumentation under the following operative conditions: • 300RF mm lens with laser beam length of 2.4 mm; • 100 mg sample dispersed in 100 ml of isopar and 0.5 ml of a 2% solution of lecithin in isopar, with 3 min presonication and 2500 rpm stirring rate.

SMILES	stability of the polymorphic form [1]	mean D[4,3] diameter of particles ([2]; listed as Adapalene Crystalline Form α)	mean D[4,3] diameter of particles ([2]; listed as adapalene crystalline Form a)	mean D[4,3] diameter of particles ([2]; listed as Adapalene Amorphous Form)
COc1ccc(-c2ccc3cc(C(=O)O)ccc3c2)cc1C12CC3CC(CC(C3)C1)C2 [adapalene crystalline Form α, 6-[3-(1-adamantyl)-4-methoxyphenyl]-2-naphthoic acid]	stable at room temperature	approx. 15 μm	about 15 μm	–
COc1ccc(-c2ccc3cc(C(=O)O)ccc3c2)cc1C12CC3CC(CC(C3)C1)C2 [adapalene amorphous Form, 6-[3-(1-adamantyl)-4-methoxyphenyl]-2-naphthoic acid]	–	–	–	approx. 15 μm
